Tested on: human PGHS-2 protein expression in LPS stimulated human monocytes
Assay: Prostoglandin endoperoxide synthase-2 (PGHS-2) assay
Format: cell-based
Protocol: The followiong assay describes a method for determining the inhibitory effects of compounds of Formula (I) on human PGHS-2 protein expression in LPS stimulated human monocytes
Human peripheal blood monocytes were isolated from buffy coats by centrifugation through Ficoll and Percoll gradients. Cells were seeded at 2×10^6 /well in 24 well plates and allowed to adhere for 1 hour in RPMI supplemented with 1% human AB serum, 20 mM L-glutamine, Penicillin-Streptomycin and 10 mM HEPES. Compounds were added at various concentrations and incubated at 37° C. for 10 minutes. LPS was added at 50 ng/well (to induce enzyme expression) and incubated overnight at 37° C. The supernatant was removed and cells washed once in cold PBS. The cells were lysed in 100 μl of cold lysis buffer(50 mM Tris/HCl pH 7.5, 150 mM NaCl, 1% NP40, 0.5% sodium deoxycholate, 0.1% SDS, 300 ug/ml DNAse, 0.1% TRITON X-100, 1 mM PMSF, 1 mM leupeptin, 1 mM pepstatin). The lysate was centrifuged (10;000×g for 10 min. at 4° C.) to remove debris and the soluble fraction was subjected to SDS PAGE. analysis (12% gel). Protein separated on the gel were transferred onto nitrocellulose membrane by electrophoretic means for 2 hours at 60 volts. The membrane was pretreated for one hour in PBS/0.1% Tween 20 with 5% non-fat dry milk. After washing 3 times in PBS/Tween buffer, the membrane was incubated with a 1:2000 dilution of a monospecific antiserum to PGHS-2 or a 1:1000 dilution of an antiserum to PGHs-1 in PBS/Tween with 1% BSA for one hour with continuous shaking. […] The membrane was then washed 3× in PBS/Tween and the ECL immunodetection system (Amersham) was used to detect the level of expression of prostaglandin endoperoxide synthases-2.

[1] = rank order potency similar to that for inhibiting cytokine production

Compound | inhibition of LPS induced PGHS-2 protein expression (up to 10 uM) | inhibition of LPS induced PGHS-2 protein expression [1]
C[S+]([O-])c1ccc(-c2nc3n(c2-c2ccncc2)CCC3)cc1 (stereo not shown) [2-(4-Methylsulfinylphenyl)-3-(4-pyridyl)-6-7-dihydro-(5H)-pyrrolo[1,2-a]imidazole] | inactive | 
Fc1ccc(-c2nc3n(c2-c2ccncc2)CCS3)cc1 [6-(4-Fluorophenyl)-2,3-dihydro-5-(4-pyridinyl)imidazo [2,1-b]thiazole] |  | active
C[C@@H]1C[C@H]2[C@@H]3CCC4=CC(=O)C=C[C@]4(C)[C@@]3(F)[C@@H](O)C[C@]2(C)[C@@]1(O)C(=O)CO [Dexamethasone] |  | active
Fc1ccc(-c2ncn(CCCN3CCOCC3)c2-c2ccncc2)cc1 [Example 1, 1-[3-(4-Morpholinyl)propyl]-4-(4-fluorophenyl)-5-(4-pyridyl)imidazole] |  | active
CC(Cc1ccc(O)c(O)c1)C(C)Cc1ccc(O)c(O)c1 (stereo not shown) [NDGA] | inactive | 
O=C1CCN(c2ccccc2)N1 [phenidone] | inactive | 
COc1ccc(C2CNC(=O)C2)cc1OC1CCCC1 (stereo not shown) [rolipram] | inactive | 

Source: patent US5670527A, “Pyridyl imidazole compounds and compositions” (SmithKline Beecham Corporation, priority 1995, dated 1997)
